# Measured values: article PMC2843614, “Protein engineering of conger eel galectins by tracing of molecular evolution using probable ancestral mutants” (BMC Evolutionary Biology, 2010)
# Where two headings read alike, the source gives them in different places.
# Columns and labels:
# Test in all cases: frontal affinity chromatography (FAC)
# [1] = target: T1, congerin II (ConII) (Conger myriaster, UniProt Q9YIC2); format: binding
# T1 construct: full length, 135 residues (natural form N-acetylated); proto-type galectin, dimer
# T1 sequence (Q9YIC2 2-136): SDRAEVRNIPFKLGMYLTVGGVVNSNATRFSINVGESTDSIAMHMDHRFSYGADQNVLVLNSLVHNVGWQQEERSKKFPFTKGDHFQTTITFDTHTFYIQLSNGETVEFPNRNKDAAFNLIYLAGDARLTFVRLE
# Description: frontal affinity chromatography (FAC) on congerin II (ConII)
# [2] = target: T2, Con-anc (probable ancestral form of congerins); format: binding, synthetic construct; conditions: labelled compound (pyridylaminated sugar)
# T2 construct: recombinant from plasmid pTV-Con-anc in Escherichia coli JM109; differs from ConI at 31 residues; purified by HCl-treated Sepharose 4B and HiTrap Q
# Description: frontal affinity chromatography (FAC) on Con-anc (probable ancestral form of congerins)
# [3] = target: T3, congerin I (ConI) (Conger myriaster, UniProt P26788); format: binding
# T3 construct: full length, 136 residues (natural form N-acetylated); proto-type galectin, dimer
# T3 sequence (P26788 whole entry): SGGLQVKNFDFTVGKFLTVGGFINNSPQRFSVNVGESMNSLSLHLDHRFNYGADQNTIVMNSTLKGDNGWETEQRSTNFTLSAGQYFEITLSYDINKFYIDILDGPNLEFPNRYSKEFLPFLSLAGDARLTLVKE
# Description: frontal affinity chromatography (FAC) on congerin I (ConI)
# [4] = labelled compound (pyridylaminated sugar)
"Kd [1, 4] [µM]",Kd [2] [µM],Kd [1] [µM],Kd [3] [µM],Kd ([2]; read-out: Con-anc-N/C/L5 / Kd) [µM],"Kd [3, 4] [µM]",Kd ([2]; read-out: Con-anc-L5 / Kd) [µM],Compound
66,196,,,,,,GM3 (NeuGc) [compound 30]
,44,37,9.4,,,,CC(=O)N[C@H]1[C@H](O[C@H]2[C@@H](O)[C@@H](CO)O[C@@H](O[C@@H]([C@H](O)[C@@H](O)CNc3ccccn3)[C@H](O)CO)[C@@H]2O)O[C@H](CO)[C@@H](O[C@@H]2O[C@@H](C)[C@@H](O)[C@@H](O)[C@@H]2O)[C@@H]1O[C@@H]1O[C@H](CO)[C@H](O)[C@H](O)[C@H]1O[C@@H]1O[C@@H](C)[C@@H](O)[C@@H](O)[C@@H]1O [compound 46]
42,56,,,2.5,17,,A-heptasaccharide [compound 48]
,55,24,4.4,,,3.9,CC(=O)N[C@H]1[C@H](O[C@H]2[C@@H](O)[C@@H](CO)O[C@@H](O[C@@H]([C@H](O)[C@@H](O)CNc3ccccn3)[C@H](O)CO)[C@@H]2O)O[C@H](CO)[C@@H](O[C@@H]2O[C@@H](C)[C@@H](O)[C@@H](O)[C@@H]2O)[C@@H]1O[C@@H]1O[C@H](CO)[C@H](O)[C@H](O)[C@H]1O [compound 44]
51,242,,,,,,CC(=O)N[C@H]1[C@H]([C@H](O)[C@H](O)CO)OC(O[C@H]2[C@@H](O)[C@@H](CO)O[C@@H](O[C@@H]([C@H](O)[C@@H](O)CNc3ccccn3)[C@H](O)CO)[C@@H]2O)(C(=O)O)C[C@@H]1O (stereo partly drawn) [compound 29]
,171,122,13,,,,"CC(=O)N[C@H]1[C@H](O[C@H]2[C@@H](O)[C@@H](CO)O[C@@H](O[C@@H]([C@H](O)[C@@H](O)CNc3ccccn3)[C@H](O)CO)[C@@H]2O)O[C@H](CO)[C@@H](O[C@@H]2O[C@H](CO)[C@H](O)[C@H](O)[C@H]2O)[C@@H]1O[C@@H]1O[C@@H](C)[C@@H](O)[C@@H](O)[C@@H]1O [compound 45, LNFP-III]"
